Source: patent publication US8609724B2, “Method of treating cancer using dichloroacetate” (priority 2005, dated 2013)
“Also recorded” adds a separate entry of the source.

Columns and labels:
cancer cells = assay: Free cytosolic calcium (fluo-3, confocal); type: cell-based, human; conditions: treated vs control cells
NFAT = NFAT and Kv1.5 confocal imaging; type: cell-based, human; conditions: A549 cells
Method: Imaging was performed using a Zeiss LSM 510 confocal microscope as described. Apoptag apoptosis detection kit (TUNEL stain, Serologicals, Norcross, Ga.) and the proliferating cell nuclear antigen (PCNA) antibody (DAKO, Carpinteria, Calif.) were used as per manufacturer's instructions on both formaldehyde fixed cells and paraffin-embedded tissue sections after antigen retrieval. Nuclear staining was made using 4′,6′-diamidino-2-phenylindole dihydrochloride (DAPI, 300 nM; Molecular Probes) in fixed tissue or cells as previously described Apoalert Annexin V kit (Clontech, Palo Alto, Calif.), cytochrome c antibody (Pharmingen, San Diego, Calif.), Apoptosis inducing factor (Santa Cruz Calif. USA) NFAT and Kv1.5 (Sigma) and mitotracker red (500 nM, Molecular Probes) were used as described by the company instructions. Mitochondrial membrane potential (ΔΨm) was studied in live cancer cultured cells, using tetramethylrhodamine methyl-ester perchlorate (TMRM) (20 nmol/L) for 30 minutes (37° C.) and Hoechst (1.0 umol/L) nuclear staining for 10 minutes (Molecular Probes, Canada).

OO [H2O2]
free cytosolic calcium concentration (cancer cells): decreases the intracellular Ca++ levels; also recorded: Control cells had more calcium than both DCA and H2O2 treated cells | Kv1.5 expression (confocal immunostaining) (NFAT): increased Kv1.5 expression | NFAT activation (nuclear localization) (NFAT): blocked the activation of NFAT
